Experimental data reported in patent publication US6358885B1, “Substituted phenylheterocyclic herbicides” (Mississippi State University, priority 1992, dated 2002).

What was measured:
wheat = test: Test B preemergence/postemergence greenhouse plant response rating 0 to 10; type: in vivo, Triticum aestivum; details: 0 to 10 scale
Procedure, shortened: (§1)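 Test chemicals, dissolved in a non-phytotoxic solvent, were applied to soil at planting and, at the same time, over foliage of seedlings at the one to four leaf stage.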

wild oat = test: as above; type: in vivo, Avena fatua; details: 0 to 10 scale
Procedure, shortened: as §1

bedstraw = test: Test C preemergence/postemergence greenhouse plant response rating 0 to 100; type: in vivo, Galium aparine; details: for Plant response rating, Bedstraw: 0 to 100 scale
Procedure, shortened: (§2)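 Compounds in non-phytotoxic solvent went onto sandy loam before emergence (seeded one day earlier) or onto plants at the one-to-four leaf stage. Duck salad was treated via flood water (~2.5 cm, maintained) over silt loam.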

rape = test: Test B preemergence/postemergence greenhouse plant response rating 0 to 10; type: in vivo, Brassica napus; details: 0 to 10 scale
Procedure, shortened: as §1

corn = test: as above; type: in vivo, Zea mays; details: for Plant response rating, Corn: 0 to 10 scale
Procedure, shortened: as §1

morningglory [1] = test: Test C preemergence/postemergence greenhouse plant response rating 0 to 100; type: in vivo, Ipomoea hederacea; details: for Plant response rating, Morningglory: 0 to 100 scale
Procedure, shortened: as §2

barley = test: as above; type: in vivo, Hordeum vulgare; details: for Plant response rating Barley Igri: 0 to 100 scale
Procedure, shortened: as §2

umbrella sedge = test: Test C flood test plant response rating 0 to 100; type: in vivo, Cyperus difformis; details: for Plant response rating Umbrella sedge: flood test species listed under POSTEMERGENCE, 0 to 100 scale
Procedure, shortened: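 Compounds in non-phytotoxic solvent applied preemergence to sandy loam one day after planting, postemergence at the 1–4 leaf stage, or to ~2.5 cm floodwater over silt loam.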

chickweed [2] = test: Test C preemergence/postemergence greenhouse plant response rating 0 to 100; type: in vivo, Stellaria media; details: for Plant response rating, Chickweed: 0 to 100 scale
Procedure, shortened: as §2

crabgrass = test: Test B preemergence/postemergence greenhouse plant response rating 0 to 10; type: in vivo, Digitaria spp.; details: for Plant response rating, Crabgrass: 0 to 10 scale
Procedure, shortened: as §1

soybean [3] = test: as above; type: in vivo, Glycine max; details: 0 to 10 scale
Procedure, shortened: as §1

chickweed [4] = test: as above; type: in vivo, Stellaria media; details: for Plant response rating, Chickweed: 0 to 10 scale
Procedure, shortened: as §1

downy brome = test: Test C preemergence/postemergence greenhouse plant response rating 0 to 100; type: in vivo, Bromus tectorum; details: for Plant response rating Downy Brome: 0 to 100 scale
Procedure, shortened: as §2

purple nutsedge = test: Test B preemergence/postemergence greenhouse plant response rating 0 to 10; type: in vivo, Cyperus rotundus; details: 0 to 10 scale
Procedure, shortened: as §1

soybean [5] = test: Test C preemergence/postemergence greenhouse plant response rating 0 to 100; type: in vivo, Glycine max; details: for Plant response rating, Soybean: 0 to 100 scale
Procedure, shortened: as §2

wild buckwheat = test: as above; type: in vivo, Polygonum convolvulus; details: for Plant response rating, Wild buckwheat: 0 to 100 scale
Procedure, shortened: as §2

sorghum = test: Test B preemergence/postemergence greenhouse plant response rating 0 to 10; type: in vivo, Sorghum bicolor; details: 0 to 10 scale
Procedure, shortened: as §1

morningglory [6] = test: as above; type: in vivo, Ipomoea hederacea; details: 0 to 10 scale
Procedure, shortened: as §1

C#CCOc1cc(-c2nn3c(c2Br)CCCC3)c(F)cc1Cl [Compound 26]
Plant response rating, Wheat (wheat; POSTEMERGENCE, Rate 50 g/ha): 4
Plant response rating, Wheat (wheat; POSTEMERGENCE, Rate 200 g/ha): 5
Plant response rating, Wheat (wheat; PREEMERGENCE, Rate 50 g/ha): 1
Plant response rating, Wheat (wheat; Rate 200 g/ha, PREEMERGENCE): 2
Plant response rating, Wild oat (wild oat; POSTEMERGENCE, Rate 50 g/ha): 5
Plant response rating, Wild oat (wild oat; POSTEMERGENCE, Rate 200 g/ha): 7
Plant response rating, Wild oat (wild oat; Rate 200 g/ha, PREEMERGENCE): 6
Plant response rating, Bedstraw (bedstraw; POSTEMERGENCE, 62 g/ha): 100
Plant response rating, Bedstraw (bedstraw; POSTEMERGENCE, 250 g/ha): 100
Plant response rating, Bedstraw (bedstraw; PREEMERGENCE, 62 g/ha): 100
Plant response rating, Bedstraw (bedstraw; PREEMERGENCE, 250 g/ha): 100
Plant response rating (0 to 100), Bedstraw (bedstraw; PREEMERGENCE, Rate 4 g/ha): 20
Plant response rating (0 to 100), Bedstraw (bedstraw; Rate 4 g/ha, POSTEMERGENCE): 70
Plant response rating (0 to 100), Bedstraw (bedstraw; Rate 16 g/ha, POSTEMERGENCE): 80
Plant response rating (0 to 100), Bedstraw (bedstraw; Rate 16 g/ha, PREEMERGENCE): 60
Plant response rating, Rape (rape; POSTEMERGENCE, Rate 50 g/ha): 9
Plant response rating, Rape (rape; POSTEMERGENCE, Rate 200 g/ha): 10
Plant response rating, Rape (rape; PREEMERGENCE, Rate 50 g/ha): 3
Plant response rating, Rape (rape; Rate 200 g/ha, PREEMERGENCE): 10
Plant response rating (0 to 10 scale), Corn (corn; POSTEMERGENCE, Rate 50 g/ha): 5
Plant response rating, Corn (corn; POSTEMERGENCE, Rate 200 g/ha): 5
Plant response rating, Corn (corn; PREEMERGENCE, Rate 50 g/ha): 4
Plant response rating, Corn (corn; Rate 200 g/ha, PREEMERGENCE): 6
Plant response rating, Morningglory (morningglory [1]; POSTEMERGENCE, 62 g/ha): 70
Plant response rating, Morningglory (morningglory [1]; POSTEMERGENCE, 250 g/ha): 100
Plant response rating (0 to 100), Morningglory (morningglory [1]; POSTEMERGENCE, Rate 4 g/ha): 50
Plant response rating, Morningglory (morningglory [1]; PREEMERGENCE, 62 g/ha): 20
Plant response rating, Morningglory (morningglory [1]; PREEMERGENCE, 250 g/ha): 100
Plant response rating (0 to 100), Morningglory (morningglory [1]; PREEMERGENCE, Rate 4 g/ha): 0
Plant response rating (0 to 100), Morningglory (morningglory [1]; Rate 16 g/ha, POSTEMERGENCE): 70
Plant response rating (0 to 100), Morningglory (morningglory [1]; Rate 16 g/ha, PREEMERGENCE): 0
Plant response rating Barley Igri (barley; POSTEMERGENCE, 62 g/ha): 40
Plant response rating Barley Igri (barley; POSTEMERGENCE, 250 g/ha): 50
Plant response rating Barley Igri (barley; PREEMERGENCE, 62 g/ha): 0
Plant response rating Barley Igri (barley; PREEMERGENCE, 250 g/ha): 20
Plant response rating (0 to 100), Barley Igri (barley; PREEMERGENCE, Rate 4 g/ha): 0
Plant response rating (0 to 100), Barley Igri (barley; Rate 4 g/ha, POSTEMERGENCE): 20
Plant response rating (0 to 100), Barley Igri (barley; Rate 16 g/ha, POSTEMERGENCE): 20
Plant response rating (0 to 100), Barley Igri (barley; Rate 16 g/ha, PREEMERGENCE): 0
Plant response rating (0 to 100), Umbrella sedge (umbrella sedge; POSTEMERGENCE section, flood test, Rate 4 g/ha): 0
Plant response rating (0 to 100), Umbrella sedge (umbrella sedge; Rate 16 g/ha, under POSTEMERGENCE head (flood test species)): 70
Plant response rating Umbrella sedge (umbrella sedge; 62 g/ha): 95
Plant response rating Umbrella sedge (umbrella sedge; 250 g/ha): 100
Plant response rating, Chickweed (chickweed [2]; POSTEMERGENCE, 62 g/ha): 100
Plant response rating, Chickweed (chickweed [2]; POSTEMERGENCE, 250 g/ha): 100
Plant response rating, Chickweed (chickweed [2]; PREEMERGENCE, 62 g/ha): 100
Plant response rating, Chickweed (chickweed [2]; PREEMERGENCE, 250 g/ha): 100
Plant response rating (0 to 100), Chickweed (chickweed [2]; PREEMERGENCE, Rate 4 g/ha): 50
Plant response rating (0 to 100), Chickweed (chickweed [2]; Rate 4 g/ha, POSTEMERGENCE): 50
Plant response rating (0 to 100), Chickweed (chickweed [2]; Rate 16 g/ha, POSTEMERGENCE): 80
Plant response rating (0 to 100), Chickweed (chickweed [2]; Rate 16 g/ha, PREEMERGENCE): 50
Plant response rating (0 to 10 scale), Crabgrass (crabgrass; POSTEMERGENCE, Rate 50 g/ha): 2
Plant response rating, Crabgrass (crabgrass; POSTEMERGENCE, Rate 200 g/ha): 6
Plant response rating, Crabgrass (crabgrass; PREEMERGENCE, Rate 50 g/ha): 5
Plant response rating, Crabgrass (crabgrass; Rate 200 g/ha, PREEMERGENCE): 9
Plant response rating, Soybean (soybean [3]; POSTEMERGENCE, Rate 50 g/ha): 8
Plant response rating, Soybean (soybean [3]; POSTEMERGENCE, Rate 200 g/ha): 9
Plant response rating, Soybean (soybean [3]; PREEMERGENCE, Rate 50 g/ha): 1
Plant response rating, Soybean (soybean [3]; Rate 200 g/ha, PREEMERGENCE): 3
Plant response rating (0 to 10 scale), Chickweed (chickweed [4]; POSTEMERGENCE, Rate 50 g/ha): 10
Plant response rating, Chickweed (chickweed [4]; POSTEMERGENCE, Rate 200 g/ha): 10
Plant response rating, Chickweed (chickweed [4]; PREEMERGENCE, Rate 50 g/ha): 10
Plant response rating, Chickweed (chickweed [4]; Rate 200 g/ha, PREEMERGENCE): 10
Plant response rating Downy Brome (downy brome; POSTEMERGENCE, 62 g/ha): 50
Plant response rating Downy Brome (downy brome; POSTEMERGENCE, 250 g/ha): 70
Plant response rating (0 to 100), Downy Brome (downy brome; POSTEMERGENCE, Rate 4 g/ha): 20
Plant response rating Downy Brome (downy brome; PREEMERGENCE, 62 g/ha): 0
Plant response rating Downy Brome (downy brome; PREEMERGENCE, 250 g/ha): 20
Plant response rating (0 to 100), Downy Brome (downy brome; PREEMERGENCE, Rate 4 g/ha): 0
Plant response rating (0 to 100), Downy Brome (downy brome; Rate 16 g/ha, POSTEMERGENCE): 40
Plant response rating (0 to 100), Downy Brome (downy brome; Rate 16 g/ha, PREEMERGENCE): 0
Plant response rating, Nutsedge (purple nutsedge; POSTEMERGENCE, Rate 200 g/ha): 4
Plant response rating, Nutsedge (purple nutsedge; PREEMERGENCE, Rate 50 g/ha): 0
Plant response rating, Nutsedge (purple nutsedge; Rate 200 g/ha, PREEMERGENCE): 0
Plant response rating, Soybean (soybean [5]; POSTEMERGENCE, 62 g/ha): 60
Plant response rating, Soybean (soybean [5]; POSTEMERGENCE, 250 g/ha): 60
Plant response rating (0 to 100), Soybean (soybean [5]; POSTEMERGENCE, Rate 4 g/ha): 20
Plant response rating, Soybean (soybean [5]; PREEMERGENCE, 250 g/ha): 100
Plant response rating (0 to 100), Soybean (soybean [5]; PREEMERGENCE, Rate 4 g/ha): 0
Plant response rating (0 to 100), Soybean (soybean [5]; Rate 16 g/ha, POSTEMERGENCE): 50
Plant response rating (0 to 100), Soybean (soybean [5]; Rate 16 g/ha, PREEMERGENCE): 0
Plant response rating, Wild buckwheat (wild buckwheat; POSTEMERGENCE, 62 g/ha): 100
Plant response rating, Wild buckwheat (wild buckwheat; POSTEMERGENCE, 250 g/ha): 100
Plant response rating (0 to 100), Wild buckwheat (wild buckwheat; POSTEMERGENCE, Rate 4 g/ha): 50
Plant response rating, Wild buckwheat (wild buckwheat; PREEMERGENCE, 250 g/ha): 100
Plant response rating (0 to 100), Wild buckwheat (wild buckwheat; PREEMERGENCE, Rate 4 g/ha): 20
Plant response rating (0 to 100), Wild buckwheat (wild buckwheat; Rate 16 g/ha, POSTEMERGENCE): 80
Plant response rating (0 to 100), Wild buckwheat (wild buckwheat; Rate 16 g/ha, PREEMERGENCE): 80
Plant response rating, Sorghum (sorghum; POSTEMERGENCE, Rate 50 g/ha): 5
Plant response rating, Sorghum (sorghum; POSTEMERGENCE, Rate 200 g/ha): 6
Plant response rating, Sorghum (sorghum; PREEMERGENCE, Rate 50 g/ha): 2
Plant response rating, Sorghum (sorghum; Rate 200 g/ha, PREEMERGENCE): 4
Plant response rating, Morningglory (morningglory [6]; POSTEMERGENCE, Rate 50 g/ha): 9
Plant response rating, Morningglory (morningglory [6]; POSTEMERGENCE, Rate 200 g/ha): 9
Plant response rating, Morningglory (morningglory [6]; PREEMERGENCE, Rate 50 g/ha): 2
Plant response rating, Morningglory (morningglory [6]; Rate 200 g/ha, PREEMERGENCE): 9
